From paper PMC6576746, “Rational discovery of dual-indication multi-target PDE/Kinase inhibitor for precision anti-cancer therapy using structural systems pharmacology” (PLoS Computational Biology, 2019) come the findings set out here.

Common to all, as to assay: biochemical
Design in all cases: DiscoverX KinomeScan competition binding assay across human kinases; per cent of control at 10 and 100 uM

One experiment deals with SRPK3 (Homo sapiens, UniProt Q9UPE1). The following applies: competition binding, % of control; read-out: Percent Control (100 uM Levosimendan). Put shortly: (§1)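 Binding is expressed as %control, normalised between positive and negative control signals. The compound (levosimendan) was tested at 10 μM and 100 μM in the DiscoverX KinomeScan competition binding format against human kinases.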

The target of the next experiment is AURKC (Homo sapiens, UniProt Q9UQB9). The following applies: competition binding, % of control; read-out: Percent Control (100 uM Levosimendan). The procedure, abridged: as §1
For a further experiment, the target named is T1, JNK3 (Homo sapiens, UniProt P53779).
T1 construct: gene MAPK10
The following applies: competition binding, % of control; read-out: Percent Control (100 uM Levosimendan). Put shortly: as §1

Another experiment concerns the target T2, PAK7 (Homo sapiens, UniProt Q9P286).
T2 construct: gene PAK5
The following applies: competition binding, % of control; read-out: Percent Control (100 uM Levosimendan). The procedure, abridged:
as §1

A further experiment concerns the target CAMK4 (Homo sapiens, UniProt Q16566). To be noted: competition binding, % of control; read-out: Percent Control (100 uM Levosimendan). The procedure, abridged: as §1
A further experiment addresses T3, ERK2 (Homo sapiens, UniProt P28482).
T3 construct: gene MAPK1
To be noted: competition binding, % of control; read-out: Percent Control (100 uM Levosimendan). Put shortly:
as §1

In a further experiment the target is EPHB1 (Homo sapiens, UniProt P54762). To be noted: competition binding, % of control; read-out: Percent Control (100 uM Levosimendan). The procedure, abridged: as §1
The next experiment addresses NEK1 (Homo sapiens, UniProt Q96PY6). To be noted: competition binding, % of control; read-out: Percent Control (100 uM Levosimendan). The procedure, abridged:
as §1

In another experiment the target is T4, CDC2L2 (Homo sapiens, UniProt Q9UQ88).
T4 construct: gene CDK11A
The following applies: competition binding, % of control; read-out: Percent Control (100 uM Levosimendan). The procedure, abridged: as §1

The next experiment has as its target CDKL1 (Homo sapiens, UniProt Q00532). To be noted: competition binding, % of control. The procedure, abridged:
as §1

For a further experiment, the target named is ZAP70 (Homo sapiens, UniProt P43403). The following applies: competition binding, % of control; read-out: Percent Control (100 uM Levosimendan). The procedure, abridged: as §1
The next experiment addresses PIK3CG (Homo sapiens, UniProt P48736). The following applies: competition binding, % of control; read-out: Percent Control (100 uM Levosimendan). Put shortly: as §1
For another experiment, the target named is MAP3K15 (Homo sapiens, UniProt Q6ZN16). The following applies: competition binding, % of control; read-out: Percent Control (100 uM Levosimendan). The procedure, abridged: as §1
For another experiment, the target named is T5, ERK5 (Homo sapiens, UniProt Q13164).
T5 construct: gene MAPK7
To be noted: competition binding, % of control; read-out: Percent Control (100 uM Levosimendan). Put shortly: as §1

The next experiment concerns the target MAP3K2 (Homo sapiens, UniProt Q9Y2U5). To be noted: competition binding, % of control; read-out: Percent Control (100 uM Levosimendan). The procedure, abridged: as §1
The target in a further experiment is TAOK3 (Homo sapiens, UniProt Q9H2K8). To be noted: competition binding, % of control; read-out: Percent Control (100 uM Levosimendan). Put shortly:
as §1

The target in a further experiment is DYRK1A (Homo sapiens, UniProt Q13627). The following applies: competition binding, % of control; read-out: Percent Control (100 uM Levosimendan). Put shortly:
as §1

A further experiment deals with AAK1 (Homo sapiens, UniProt Q2M2I8). To be noted: competition binding, % of control. The procedure, abridged: as §1
Setting [1] is: read-out: Percent Control (10 uM Levosimendan).
The mark [2] stands for this setting: read-out: Percent Control (100 uM Levosimendan).

Chain of CDKL1 (Q00532 whole entry): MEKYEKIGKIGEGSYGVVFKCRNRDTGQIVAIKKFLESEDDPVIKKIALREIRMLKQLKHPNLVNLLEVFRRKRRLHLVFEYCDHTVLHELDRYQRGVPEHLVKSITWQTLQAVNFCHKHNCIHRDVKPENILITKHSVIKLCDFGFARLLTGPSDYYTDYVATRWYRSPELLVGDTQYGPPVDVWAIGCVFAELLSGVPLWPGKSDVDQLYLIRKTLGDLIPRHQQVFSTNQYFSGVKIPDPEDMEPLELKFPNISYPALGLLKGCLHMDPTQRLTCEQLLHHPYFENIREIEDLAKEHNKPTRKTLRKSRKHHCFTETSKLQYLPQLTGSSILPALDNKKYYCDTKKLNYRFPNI
Chain of AAK1 (Q2M2I8 whole entry): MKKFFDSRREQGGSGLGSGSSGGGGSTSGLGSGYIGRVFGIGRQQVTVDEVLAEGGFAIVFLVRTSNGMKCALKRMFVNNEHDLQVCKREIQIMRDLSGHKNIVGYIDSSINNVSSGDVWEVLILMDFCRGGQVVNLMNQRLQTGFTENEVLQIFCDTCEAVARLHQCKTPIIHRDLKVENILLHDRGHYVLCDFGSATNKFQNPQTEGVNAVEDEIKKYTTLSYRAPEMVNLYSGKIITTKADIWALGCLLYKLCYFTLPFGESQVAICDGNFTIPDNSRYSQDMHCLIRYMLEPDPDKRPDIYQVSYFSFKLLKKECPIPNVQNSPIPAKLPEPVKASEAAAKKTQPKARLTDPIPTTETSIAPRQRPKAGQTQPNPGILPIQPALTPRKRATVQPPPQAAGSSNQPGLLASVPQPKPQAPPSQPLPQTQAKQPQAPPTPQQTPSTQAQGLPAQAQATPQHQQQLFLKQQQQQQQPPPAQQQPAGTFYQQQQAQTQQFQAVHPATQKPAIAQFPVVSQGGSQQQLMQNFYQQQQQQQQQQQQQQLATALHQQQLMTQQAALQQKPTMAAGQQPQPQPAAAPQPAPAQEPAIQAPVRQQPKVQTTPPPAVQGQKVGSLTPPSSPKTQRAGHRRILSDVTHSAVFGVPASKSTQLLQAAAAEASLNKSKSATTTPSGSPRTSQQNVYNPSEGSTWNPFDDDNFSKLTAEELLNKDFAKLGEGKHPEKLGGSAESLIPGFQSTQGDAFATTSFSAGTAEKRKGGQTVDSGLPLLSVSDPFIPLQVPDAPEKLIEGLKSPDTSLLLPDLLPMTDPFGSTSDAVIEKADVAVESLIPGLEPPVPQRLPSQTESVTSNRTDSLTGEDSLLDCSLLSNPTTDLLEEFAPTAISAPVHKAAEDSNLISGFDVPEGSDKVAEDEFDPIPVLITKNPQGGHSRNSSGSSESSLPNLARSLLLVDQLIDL
Chain of PIK3CG (P48736 whole entry): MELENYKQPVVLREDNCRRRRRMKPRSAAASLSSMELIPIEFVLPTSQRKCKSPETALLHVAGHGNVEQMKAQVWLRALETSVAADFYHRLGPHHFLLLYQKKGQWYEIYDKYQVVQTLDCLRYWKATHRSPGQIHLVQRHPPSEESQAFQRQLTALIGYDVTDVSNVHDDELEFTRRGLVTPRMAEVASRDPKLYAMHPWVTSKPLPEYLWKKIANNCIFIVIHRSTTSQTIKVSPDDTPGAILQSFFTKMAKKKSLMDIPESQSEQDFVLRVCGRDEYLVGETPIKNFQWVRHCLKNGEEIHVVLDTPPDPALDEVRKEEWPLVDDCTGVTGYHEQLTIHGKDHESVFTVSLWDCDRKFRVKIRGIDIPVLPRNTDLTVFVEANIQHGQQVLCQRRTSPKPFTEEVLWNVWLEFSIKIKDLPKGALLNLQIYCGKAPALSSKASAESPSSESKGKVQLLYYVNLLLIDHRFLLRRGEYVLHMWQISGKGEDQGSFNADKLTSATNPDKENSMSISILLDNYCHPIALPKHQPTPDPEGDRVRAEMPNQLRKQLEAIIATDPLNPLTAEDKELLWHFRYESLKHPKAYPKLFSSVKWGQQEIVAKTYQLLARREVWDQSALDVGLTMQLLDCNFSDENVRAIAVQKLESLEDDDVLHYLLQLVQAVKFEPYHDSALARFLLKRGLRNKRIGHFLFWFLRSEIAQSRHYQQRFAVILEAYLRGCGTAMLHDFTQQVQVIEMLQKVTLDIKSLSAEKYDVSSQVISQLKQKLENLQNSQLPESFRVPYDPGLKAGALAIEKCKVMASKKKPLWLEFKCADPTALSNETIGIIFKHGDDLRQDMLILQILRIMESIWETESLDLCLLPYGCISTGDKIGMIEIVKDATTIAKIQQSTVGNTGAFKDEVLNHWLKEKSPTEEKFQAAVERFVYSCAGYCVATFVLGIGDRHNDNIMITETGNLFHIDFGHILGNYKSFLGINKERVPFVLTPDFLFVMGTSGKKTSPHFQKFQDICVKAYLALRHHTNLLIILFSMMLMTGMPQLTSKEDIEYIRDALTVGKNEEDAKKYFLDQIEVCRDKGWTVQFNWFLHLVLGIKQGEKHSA
T2 sequence (Q9P286 whole entry): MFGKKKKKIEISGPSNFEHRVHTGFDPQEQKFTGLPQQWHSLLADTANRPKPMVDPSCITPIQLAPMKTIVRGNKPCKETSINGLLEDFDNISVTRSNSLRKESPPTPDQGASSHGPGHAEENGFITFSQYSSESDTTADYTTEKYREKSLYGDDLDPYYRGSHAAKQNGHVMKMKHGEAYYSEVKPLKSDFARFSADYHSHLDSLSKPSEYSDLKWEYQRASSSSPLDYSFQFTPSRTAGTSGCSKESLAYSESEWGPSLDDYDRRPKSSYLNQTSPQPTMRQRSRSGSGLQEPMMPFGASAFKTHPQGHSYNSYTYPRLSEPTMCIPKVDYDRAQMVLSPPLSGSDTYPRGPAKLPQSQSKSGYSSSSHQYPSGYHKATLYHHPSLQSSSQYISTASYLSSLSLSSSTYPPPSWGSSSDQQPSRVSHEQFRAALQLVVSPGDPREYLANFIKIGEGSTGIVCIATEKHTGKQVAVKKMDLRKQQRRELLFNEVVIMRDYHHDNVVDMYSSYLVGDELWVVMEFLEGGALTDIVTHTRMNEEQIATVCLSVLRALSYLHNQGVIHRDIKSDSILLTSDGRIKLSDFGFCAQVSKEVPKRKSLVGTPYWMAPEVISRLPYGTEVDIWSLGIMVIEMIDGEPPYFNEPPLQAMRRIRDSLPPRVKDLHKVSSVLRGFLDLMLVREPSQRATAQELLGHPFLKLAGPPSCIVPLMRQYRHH
Chain of MAP3K15 (Q6ZN16 whole entry): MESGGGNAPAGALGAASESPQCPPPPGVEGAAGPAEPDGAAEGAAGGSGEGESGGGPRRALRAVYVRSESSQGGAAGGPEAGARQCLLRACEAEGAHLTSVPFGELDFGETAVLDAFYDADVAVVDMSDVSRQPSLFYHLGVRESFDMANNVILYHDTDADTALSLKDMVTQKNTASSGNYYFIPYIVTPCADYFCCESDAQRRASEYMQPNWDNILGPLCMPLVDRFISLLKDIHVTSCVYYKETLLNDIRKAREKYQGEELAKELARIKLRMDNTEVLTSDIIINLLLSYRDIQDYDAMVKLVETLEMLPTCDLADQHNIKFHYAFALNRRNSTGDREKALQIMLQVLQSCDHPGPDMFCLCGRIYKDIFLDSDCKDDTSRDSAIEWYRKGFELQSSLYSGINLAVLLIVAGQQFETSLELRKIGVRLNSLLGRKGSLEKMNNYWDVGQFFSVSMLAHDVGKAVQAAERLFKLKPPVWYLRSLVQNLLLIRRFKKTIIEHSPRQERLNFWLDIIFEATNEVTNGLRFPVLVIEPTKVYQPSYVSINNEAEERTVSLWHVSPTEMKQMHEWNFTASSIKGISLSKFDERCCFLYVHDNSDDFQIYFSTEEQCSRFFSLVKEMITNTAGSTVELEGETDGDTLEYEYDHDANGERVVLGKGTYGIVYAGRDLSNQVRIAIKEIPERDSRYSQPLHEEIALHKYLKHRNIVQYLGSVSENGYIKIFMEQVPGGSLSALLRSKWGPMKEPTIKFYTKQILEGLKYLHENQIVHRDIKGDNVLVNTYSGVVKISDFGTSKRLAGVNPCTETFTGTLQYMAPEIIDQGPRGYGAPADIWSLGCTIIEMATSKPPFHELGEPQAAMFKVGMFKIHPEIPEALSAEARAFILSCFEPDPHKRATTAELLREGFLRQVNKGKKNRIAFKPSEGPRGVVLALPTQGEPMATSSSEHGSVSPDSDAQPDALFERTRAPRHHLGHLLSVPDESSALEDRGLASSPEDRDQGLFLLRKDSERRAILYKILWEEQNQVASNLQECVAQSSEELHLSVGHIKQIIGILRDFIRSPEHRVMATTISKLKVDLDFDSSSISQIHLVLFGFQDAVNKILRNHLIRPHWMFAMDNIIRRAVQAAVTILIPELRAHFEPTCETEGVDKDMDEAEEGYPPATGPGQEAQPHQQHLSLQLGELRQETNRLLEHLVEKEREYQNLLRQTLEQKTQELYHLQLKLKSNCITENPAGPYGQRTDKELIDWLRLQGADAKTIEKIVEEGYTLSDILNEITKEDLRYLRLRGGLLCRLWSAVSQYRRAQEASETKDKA
T1 sequence (P53779 whole entry): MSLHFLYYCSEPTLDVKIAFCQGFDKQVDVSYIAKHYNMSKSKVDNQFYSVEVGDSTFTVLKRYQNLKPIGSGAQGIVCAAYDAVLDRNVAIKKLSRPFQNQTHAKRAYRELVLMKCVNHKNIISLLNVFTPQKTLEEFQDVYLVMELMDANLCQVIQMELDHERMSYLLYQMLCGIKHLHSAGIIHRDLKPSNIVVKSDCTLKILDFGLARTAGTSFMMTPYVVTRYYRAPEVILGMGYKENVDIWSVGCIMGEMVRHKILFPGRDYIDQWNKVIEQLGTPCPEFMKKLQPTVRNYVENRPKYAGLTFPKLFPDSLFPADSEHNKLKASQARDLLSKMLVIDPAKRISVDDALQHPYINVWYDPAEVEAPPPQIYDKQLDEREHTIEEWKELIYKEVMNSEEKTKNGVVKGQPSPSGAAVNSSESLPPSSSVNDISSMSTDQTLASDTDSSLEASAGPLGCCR

On to `C[C@@H]1CC(=O)NN=C1c1ccc(NN=C(C#N)C#N)cc1` [levosimendan], for which the remaining binding at 100 µM on SRPK3 came out at 63%; on AURKC, 100%; at JNK3, 99%; at PAK7, 79%; on CAMK4, 100%; at ERK2, 100%. Moreover, the remaining binding at 100 µM at EPHB1 was found to be 96%; on NEK1, 100%; at CDC2L2, 100%; on CDKL1 (setting [2]), 47%; on ZAP70 it was 74%; at PIK3CG it was 80%. In addition, the remaining binding at 100 µM on MAP3K15 is 100%; on ERK5, 100%; at MAP3K2, 86%; at TAOK3 it was 100%; on DYRK1A, 89%; at AAK1 (setting [2]), 24%. The figures for the remaining binding at 10 µM at CDKL1 (setting [1]) and at AAK1 (setting [1]) were 88% and 31%, respectively.
